Source: patent US20260053932A1, “COMPOUNDS AND METHODS FOR THE TARGETED DEGRADATION OF ANDROGEN RECEPTOR AND ASSOCIATED METHODS OF USE” (Arvinas Operations, Inc., priority 2020, published 2026)

system: androgen receptor (AR) in LNCaP and/or VCaP cells; experiment: Androgen Receptor ELISA assay (AR degradation); format: cell-based; details: LNCaP and/or VCaP cells; 5 hours incubation; media with R1881; read-out: DC50 Code* (degradation of AR ELISA)
Summary of the method: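 VCaP cells grown ≥3 days, then treated 5 h with compound in media containing 1 nM R1881 (10× stock). Cells lysed and AR quantified by sandwich ELISA (mouse AR detection Ab, HRP anti-mouse, TMB). DC50 and Dmax derived from AR degradation.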

| DC50 [nM] | SMILES |
| --- | --- |
| < 1 | COCC(C)N(CC1CCN(c2cnc(C(=O)N[C@H]3CC[C@H](Oc4ccc(C#N)c(Cl)c4)CC3)cn2)CC1)[C@H]1C[C@H](Oc2ccc3c(c2)C(=O)N(C2CCC(=O)NC2=O)C3=O)C1 (some centres unmarked) [Compound 55, N-((1r,4r)-4-(3-chloro-4-cyanophenoxy)cyclohexyl)-5-(4-((((1r,3r)-3-((2-(2,6-dioxopiperidin-3-yl)-1,3-dioxoisoindolin-5-yl)oxy)cyclobutyl)(1-methoxypropan-2-yl)amino)methyl)piperidin-1-yl)pyrazine-2-carboxamide] |
| < 1 | N#Cc1ccc(O[C@H]2CC[C@H](NC(=O)c3ccc(N4CCC(CN[C@H]5C[C@H](Oc6ccc7c(c6)C(=O)N(C6CCC(=O)NC6=O)C7=O)C5)CC4)nn3)CC2)cc1Cl (mixture of isomers) [Compound 51, rac-N-((1r,4r)-4-(3-chloro-4-cyanophenoxy)cyclohexyl)-6-(4-((((1r,3r)-3-((2-(2,6-dioxopiperidin-3-yl)-1,3-dioxoisoindolin-5-yl)oxy)cyclobutyl)amino)methyl)piperidin-1-yl)pyridazine-3-carboxamide] |
| > 100 | CC(C)N(CC1CCN(c2cnc(C(=O)N[C@H]3CC[C@H](Oc4ccc(C#N)c(Cl)c4)CC3)cn2)CC1)[C@H]1C[C@H](Oc2ccc3c(c2)C(=O)N([C@@H]2C(=O)NC(=O)C[C@@H]2C)C3=O)C1 [Compound 76, N-((1r,4r)-4-(3-chloro-4-cyanophenoxy)cyclohexyl)-5-(4-((isopropyl((1S,3r)-3-((2-((3S,4S)-4-methyl-2,6-dioxopiperidin-3-yl)-1,3-dioxoisoindolin-5-yl)oxy)cyclobutyl)amino)methyl)piperidin-1-yl)pyrazine-2-carboxamide] |
| < 1 | COc1cc(O[C@H]2CC[C@H](NC(=O)c3cnc(N4CCC(CN(C(C)C)[C@H]5C[C@H](Oc6ccc7c(c6)C(=O)N(C6CCC(=O)NC6=O)C7)C5)CC4)cn3)CC2)ccc1C#N (some centres unmarked) [Compound 34, N-((1r,4r)-4-(4-cyano-3-methoxyphenoxy)cyclohexyl)-5-(4-((((1r,3r)-3-((2-(2,6-dioxopiperidin-3-yl)-3-oxoisoindolin-5-yl)oxy)cyclobutyl) (isopropyl)amino)methyl)piperidin-1-yl)pyrazine-2-carboxamide] |
| < 1 | CC(C)N(CC1CCN(c2ncc(C(=O)N[C@H]3C(C)(C)[C@H](Oc4ccc(C#N)c(Cl)c4)C3(C)C)cn2)CC1)[C@H]1CC[C@H](Oc2ccc3c(c2)C(=O)N(C2CCC(=O)NC2=O)C3=O)CC1 (some centres unmarked) [Compound 26, N-((1r,3r)-3-(3-chloro-4-cyanophenoxy)-2,2,4,4-tetramethylcyclobutyl)-2-(4-((((1r,4r)-4-((2-(2,6-dioxopiperidin-3-yl)-1,3-dioxoisoindolin-5-yl)oxy)cyclohexyl) (isopropyl)amino)methyl)piperidin-1-yl)pyrimidine-5-carboxamide] |
| > 100 | CN1C(=O)CCC(N2C(=O)c3cc(F)c(N4CCN(CC5CCN(c6ccc(C(=O)N[C@H]7CC[C@H](Oc8ccc(C#N)c(Cl)c8)CC7)nn6)CC5)CC4)cc3C2=O)C1=O (some centres unmarked) [Compound 74, N-((1r,4r)-4-(3-chloro-4-cyanophenoxy)cyclohexyl)-6-(4-((4-(6-fluoro-2-(1-methyl-2,6-dioxopiperidin-3-yl)-1,3-dioxoisoindolin-5-yl)piperazin-1-yl)methyl)piperidin-1-yl)pyridazine-3-carboxamide] |

same assay, conditions: degradation of AR ELISA in LNCaP and/or VCaP cells; Table 2C; read-out: DC50 Code*

| DC50 [nM] | SMILES |
| --- | --- |
| < 1 | COc1cc(O[C@H]2C[C@H](N(C)CC3CCN(c4ccc(C(=O)N[C@H]5C(C)(C)[C@H](Oc6cc(C)c(C#N)c(C)c6)C5(C)C)cc4)CC3)C2)cc2c1C(=O)N(C1CCC(=O)NC1=O)C2=O (mixture of isomers) [compound 191, rac-N-((1r,3r)-3-(4-cyano-3,5-dimethylphenoxy)-2,2,4,4-tetramethylcyclobutyl)-4-(4-((((1r,3r)-3-((2-(2,6-dioxopiperidin-3-yl)-7-methoxy-1,3-dioxoisoindolin-5-yl)oxy)cyclobutyl) (methyl)amino)methyl)piperidin-1-yl)benzamide] |
| < 1 | Cc1cc(O[C@H]2C(C)(C)[C@H](NC(=O)c3ccc(N4CC5(CC(CN(C(C)C)[C@H]6C[C@H](Oc7ccc8c(c7)C(=O)N(C7CCC(=O)NC7=O)C8=O)C6)C5)C4)nn3)C2(C)C)cc(C)c1C#N (some centres unmarked) [compound 163, N-((1r,3r)-3-(4-cyano-3,5-dimethylphenoxy)-2,2,4,4-tetramethylcyclobutyl)-6-(6-((((1r,3r)-3-((2-(2,6-dioxopiperidin-3-yl)-1,3-dioxoisoindolin-5-yl)oxy)cyclobutyl) (isopropyl)amino)methyl)-2-azaspiro[3.3]heptan-2-yl)pyridazine-3-carboxamide] |
| < 1 | Cc1cc(O[C@H]2C(C)(C)[C@H](NC(=O)c3cnc(N4CC(CN[C@H]5C[C@H](Oc6ccc7c(c6)C(=O)N(C6CCC(=O)NC6=O)C7=O)C5)C4)nc3)C2(C)C)cc(C)c1C#N (some centres unmarked) [compound 82, N-((1r,3r)-3-(4-cyano-3,5-dimethylphenoxy)-2,2,4,4-tetramethylcyclobutyl)-2-(3-((((1r,3r)-3-((2-(2,6-dioxopiperidin-3-yl)-1,3-dioxoisoindolin-5-yl)oxy)cyclobutyl)amino)methyl)azetidin-1-yl)pyrimidine-5-carboxamide] |
| < 1 | Cc1cc(O[C@H]2C(C)(C)[C@H](NC(=O)c3ccc(N4CCC(CN5CCOC[C@H]5COc5ccc6c(c5)C(=O)N(C5CCC(=O)NC5=O)C6=O)CC4)cc3)C2(C)C)cc(C)c1C#N (stereo partly drawn) [compound 221, N-((1r,3S)-3-(4-cyano-3,5-dimethylphenoxy)-2,2,4,4-tetramethylcyclobutyl)-4-(4-(((3S)-3-(((2-(2,6-dioxopiperidin-3-yl)-1,3-dioxoisoindolin-5-yl)oxy)methyl)morpholino)methyl)piperidin-1-yl)benzamide] |
| < 1 | CC(C)Oc1cc(N2CCN(CC3CCN(c4ncc(C(=O)N[C@H]5C(C)(C)[C@H](Oc6ccc(C#N)c(Cl)c6)C5(C)C)cn4)CC3)CC2)cc2c1C(=O)N(C1CCC(=O)NC1=O)C2=O (some centres unmarked) [compound 103, N-((1r,3r)-3-(3-chloro-4-cyanophenoxy)-2,2,4,4-tetramethylcyclobutyl)-2-(4-((4-(2-(2,6-dioxopiperidin-3-yl)-7-isopropoxy-1,3-dioxoisoindolin-5-yl)piperazin-1-yl)methyl)piperidin-1-yl)pyrimidine-5-carboxamide] |
| < 1 | Cc1cc(O[C@H]2C(C)(C)[C@H](NC(=O)c3ccc(N4CCC(CN(C)[C@@H]5CC[C@@H](Oc6ccc7c(c6)C(=O)N(C6CCC(=O)NC6=O)C7=O)C5)CC4)cc3)C2(C)C)cc(C)c1C#N (stereo partly drawn) [compound 161, N-((1r,3R)-3-(4-cyano-3,5-dimethylphenoxy)-2,2,4,4-tetramethylcyclobutyl)-4-(4-((((1R,3R)-3-((2-(2,6-dioxopiperidin-3-yl)-1,3-dioxoisoindolin-5-yl)oxy)cyclopentyl) (methyl)amino)methyl)piperidin-1-yl)benzamide] |
| < 1 | Cc1cc(O[C@H]2C(C)(C)[C@H](NC(=O)c3ccc(N4CCC(CN5CCOC[C@@H]5CCOc5ccc6c(c5)C(=O)N(C5CCC(=O)NC5=O)C6=O)CC4)cc3)C2(C)C)cc(C)c1C#N (stereo partly drawn) [compound 174, N-((1r,3S)-3-(4-cyano-3,5-dimethylphenoxy)-2,2,4,4-tetramethylcyclobutyl)-4-(4-(((3S)-3-(2-((2-(2,6-dioxopiperidin-3-yl)-1,3-dioxoisoindolin-5-yl)oxy)ethyl)morpholino)methyl)piperidin-1-yl)benzamide] |
| < 1 | Cc1cc(O[C@H]2C(C)(C)[C@H](NC(=O)c3ccc(N4CCC(OCCN(C)[C@H]5C[C@H](Oc6ccc7c(c6)C(=O)N(C6CCC(=O)NC6=O)C7=O)C5)CC4)cc3)C2(C)C)cc(C)c1C#N (mixture of isomers) [compound 150, rac-N-((1r,3r)-3-(4-cyano-3,5-dimethylphenoxy)-2,2,4,4-tetramethylcyclobutyl)-4-(4-(2-(((1r,3r)-3-((2-(2,6-dioxopiperidin-3-yl)-1,3-dioxoisoindolin-5-yl)oxy)cyclobutyl) (methyl)amino)ethoxy)piperidin-1-yl)benzamide] |
| < 1 | CC(C)N(C[C@H]1C2CN(c3ncc(C(=O)N[C@H]4C(C)(C)[C@H](Oc5ccc(C#N)c(Cl)c5)C4(C)C)cn3)C[C@H]21)[C@H]1C[C@H](Oc2ccc3c(c2)C(=O)N(C2CCC(=O)NC2=O)C3=O)C1 (stereo partly drawn) [compound 92, N-((1r,3S)-3-(3-chloro-4-cyanophenoxy)-2,2,4,4-tetramethylcyclobutyl)-2-((1S,5S)-6-((((1r,3S)-3-((2-(2,6-dioxopiperidin-3-yl)-1,3-dioxoisoindolin-5-yl)oxy)cyclobutyl) (isopropyl)amino)methyl)-3-azabicyclo[3.1.0]hexan-3-yl)pyrimidine-5-carboxamide] |
| < 1 | [2H]C([2H])([2H])Oc1cc(O[C@H]2C[C@H](N(CC3CCN(c4cnc(C(=O)N[C@H]5C(C)(C)[C@H](Oc6cc(C)c(C#N)c(C)c6)C5(C)C)cn4)CC3)C(C)C)C2)cc2c1C(=O)N(C1CCC(=O)NC1=O)C2=O (mixture of isomers) [compound 195, rac-N-((1r,3r)-3-(4-cyano-3,5-dimethylphenoxy)-2,2,4,4-tetramethylcyclobutyl)-5-(4-((((1r,3r)-3-((2-(2,6-dioxopiperidin-3-yl)-7-(methoxy-d3)-1,3-dioxoisoindolin-5-yl)oxy)cyclobutyl) (isopropyl)amino)methyl)piperidin-1-yl)pyrazine-2-carboxamide] |

same assay, conditions: degradation of AR ELISA in LNCaP and/or VCaP cells; read-out: DC50 Code*

| DC50 [nM] | SMILES |
| --- | --- |
| 1 to 10 | COc1cc(O[C@H]2C[C@H](N(CC(F)F)CC3CCN(c4ccc(C(=O)N[C@H]5C(C)(C)[C@H](Oc6cc(C)c(C#N)c(C)c6)C5(C)C)cc4)CC3)C2)cc2c1C(=O)N(C1CCC(=O)NC1=O)C2=O (some centres unmarked) [compound 242, N-((1r,3r)-3-(4-cyano-3,5-dimethylphenoxy)-2,2,4,4-tetramethylcyclobutyl)-4-(4-(((2,2-difluoroethyl)((1r,3r)-3-((2-(2,6-dioxopiperidin-3-yl)-7-methoxy-1,3-dioxoisoindolin-5-yl)oxy)cyclobutyl)amino)methyl)piperidin-1-yl)benzamide] |
